# Experiments:
# Test in all cases: relative viability (nuclei count vs DMSO), 5 days (fraction); higher = more cells survive
# [1] = compound: CN(C)C[C@@H]1CCn2cc(c3ccccc32)C2=C(C(=O)NC2=O)c2cn(c3ccccc23)CCO1 [Ruboxistaurin] + Nc1nc2[nH]cc(CCc3ccc(C(=O)N[C@@H](CCC(=O)O)C(=O)O)cc3)c2c(=O)[nH]1 [Pemetrexed] (partner 0.2 µM)
# In short: (§1)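 Each reported value is a median over duplicate plates. It expresses relative viability: treated-well nuclei count divided by vehicle-well nuclei count. Lung cancer cell lines in 1536-well plates were dosed by pin tool a day after seeding, alone with one drug or with a fixed anchor-drug dose plus five library-drug doses (not always all listed) in √10 steps, and nuclei were counted after 5 days.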
# [2] = compound: CN(C)C[C@@H]1CCn2cc(c3ccccc32)C2=C(C(=O)NC2=O)c2cn(c3ccccc23)CCO1 [Ruboxistaurin] + Nc1ncn([C@H]2C[C@H](O)[C@@H](CO)O2)c(=O)n1 [Decitabine] (partner 2 µM)
# In short: as §1
# [3] = compound: CN(C)C[C@@H]1CCn2cc(c3ccccc32)C2=C(C(=O)NC2=O)c2cn(c3ccccc23)CCO1 [Ruboxistaurin] + CC(C)C[C@H](NC(=O)[C@H](Cc1ccccc1)NC(=O)c1cnccn1)B(O)O [Bortezomib] (partner 0.002 µM)
# In short: as §1
# [4] = compound: CN(C)C[C@@H]1CCn2cc(c3ccccc32)C2=C(C(=O)NC2=O)c2cn(c3ccccc23)CCO1 [Ruboxistaurin] + C[C@@H](Oc1cc(-c2cnn(C3CCNCC3)c2)cnc1N)c1c(Cl)ccc(F)c1Cl [Crizotinib] (partner 1 µM)
# In short: as §1
# Ruboxistaurin + OSI-027 = compound: CN(C)C[C@@H]1CCn2cc(c3ccccc32)C2=C(C(=O)NC2=O)c2cn(c3ccccc23)CCO1 [Ruboxistaurin] + COc1cccc2cc(-c3nc([C@H]4CC[C@H](C(=O)O)CC4)n4ncnc(N)c34)[nH]c12 [OSI-027] (partner 0.5 µM)
# In short: as §1
Cell Line,relative viability ([1]; first compound 0.08 µM),relative viability ([1]; first compound 0.8 µM),relative viability ([1]; first compound 2.53 µM),relative viability ([1]; first compound 8 µM),relative viability ([2]; first compound 0.08 µM),relative viability ([2]; first compound 0.8 µM),relative viability ([2]; first compound 2.53 µM),relative viability ([2]; first compound 8 µM),relative viability ([3]; first compound 0.08 µM),relative viability ([3]; first compound 0.8 µM),relative viability ([3]; first compound 2.53 µM),relative viability ([3]; first compound 8 µM),relative viability ([4]; first compound 0.08 µM),relative viability ([4]; first compound 0.8 µM),relative viability ([4]; first compound 2.53 µM),relative viability ([4]; first compound 8 µM),relative viability (Ruboxistaurin + OSI-027; first compound 0.08 µM),relative viability (Ruboxistaurin + OSI-027; first compound 0.8 µM),relative viability (Ruboxistaurin + OSI-027; first compound 2.53 µM),relative viability (Ruboxistaurin + OSI-027; first compound 8 µM)
NCI-H1650,0.425,0.362,0.373,0.454,0.387,0.524,0.501,0.468,0.216,0.192,0.212,0.195,0.991,0.837,1.19,1.04,0.711,0.408,0.614,0.376
NCI-H1651,0.612,0.586,0.585,0.528,0.698,0.542,0.681,0.632,0.975,0.877,0.942,0.958,0.882,0.883,0.911,0.911,0.779,0.611,0.653,0.566
NCI-H1666,0.85,0.825,0.747,0.808,0.728,0.693,0.693,0.788,0.857,0.751,0.806,0.733,0.941,0.88,1.09,0.733,0.885,0.785,0.929,0.759
NCI-H1734,0.425,0.394,0.4,0.4,0.535,0.466,0.501,0.521,1.01,0.781,1.06,0.816,0.719,0.514,0.605,0.66,0.628,0.411,0.56,0.385
NCI-H1755,0.452,0.476,0.35,0.471,0.731,0.678,0.691,0.778,0.976,0.945,0.979,1.02,0.932,0.771,0.868,0.87,0.714,0.621,0.614,0.549
NCI-H1792,0.845,0.659,0.749,0.584,0.63,0.479,0.491,0.554,0.995,0.928,0.915,1.03,1.05,0.956,0.966,1.01,0.798,0.605,0.736,0.625
NCI-H1915,0.508,0.439,0.443,0.426,0.252,0.262,0.277,0.268,0.985,0.928,0.985,0.896,0.892,0.829,0.855,0.901,0.645,0.489,0.505,0.363
NCI-H1975,0.328,0.276,0.301,0.286,0.43,0.346,0.393,0.42,0.392,0.311,0.424,0.392,0.954,0.846,0.954,0.862,0.751,0.578,0.645,0.502
NCI-H1993,0.482,0.565,0.633,0.577,0.579,0.559,0.582,0.522,1.3,0.925,1.01,0.83,0.88,0.726,0.944,0.708,0.6,0.479,0.543,0.531
NCI-H2009,1.05,1.08,1.02,1.07,0.39,0.371,0.411,0.406,1.04,0.941,1.14,1.41,1,0.959,1.06,1.08,0.735,0.536,0.608,0.548
NCI-H2023,0.228,0.188,0.224,0.151,0.214,0.214,0.254,0.256,1.1,0.898,1.06,0.819,0.691,0.588,0.565,0.503,0.438,0.309,0.271,0.158
NCI-H2085,1.07,0.868,0.944,0.904,0.485,0.534,0.67,0.667,1.07,0.987,1.09,1.17,1,0.684,0.874,0.917,0.731,0.521,0.791,0.446
NCI-H2087,0.641,0.679,0.662,0.693,0.243,0.21,0.241,0.263,0.794,0.615,0.798,1.04,0.898,0.735,1.08,1.15,0.627,0.492,0.449,0.309
NCI-H2126,0.699,0.65,0.674,0.623,0.586,0.581,0.562,0.552,1.11,1.05,1.18,1.16,1.03,0.92,1.07,1,0.811,0.638,0.776,0.639
NCI-H2347,0.45,0.413,0.372,0.44,0.648,0.58,0.626,0.664,1.25,1.11,0.957,1.02,0.725,0.581,0.568,0.651,0.483,0.429,0.354,0.356
NCI-H2405,1.13,1.04,1.11,1.01,0.798,0.676,0.763,0.756,1.01,1.01,1,0.94,0.901,0.823,0.838,0.874,0.652,0.592,0.633,0.56
